Experimental findings from US8906925B2, “Pyrido[4,3-B]indoles containing rigid moieties” (Medivation Technologies, Inc., priority 2008, dated 2014) are described below.

Read-outs that look alike come from different tables or passages of the source.

The target in assay [1] is histamine receptor H1 (Homo sapiens, UniProt P35367). Kind of assay: Histamine H1 radioligand binding ([3H]Pyrilamine). The following applies: read-out: Histamine Binding (1 μM) H1, percent inhibition of specific binding, 1 μM. An outline of the steps: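 Values are percent inhibition of specific [3H]pyrilamine (1.2 nM) binding with compounds at ≤1 μM (1% DMSO vehicle); 180 min incubation at 25 °C, pH 7.4 Tris buffer, on CHO-expressed human H1 receptor; 1 μM pyrilamine defined nonspecific binding, bound ligand counted after filtration.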
Sequence of histamine receptor H1 (P35367 whole entry): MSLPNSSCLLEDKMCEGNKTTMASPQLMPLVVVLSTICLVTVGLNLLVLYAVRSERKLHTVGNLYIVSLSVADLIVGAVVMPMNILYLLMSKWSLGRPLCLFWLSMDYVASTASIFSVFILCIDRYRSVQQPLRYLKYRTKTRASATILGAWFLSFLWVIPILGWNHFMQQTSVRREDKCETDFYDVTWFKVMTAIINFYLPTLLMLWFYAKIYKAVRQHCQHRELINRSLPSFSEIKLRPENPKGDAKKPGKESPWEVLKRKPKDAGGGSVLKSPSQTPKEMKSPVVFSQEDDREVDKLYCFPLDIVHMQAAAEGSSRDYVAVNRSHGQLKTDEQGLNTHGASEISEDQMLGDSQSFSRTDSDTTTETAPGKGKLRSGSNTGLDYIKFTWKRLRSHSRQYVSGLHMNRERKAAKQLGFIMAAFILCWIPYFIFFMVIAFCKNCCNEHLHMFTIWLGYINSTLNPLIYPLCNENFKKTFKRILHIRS

Assay [2] addresses human dopamine D2L receptor (Homo sapiens, UniProt P14416). Kind of assay: Dopamine D2L radioligand binding ([3H]Spiperone). The settings on record: compound at 1 μM. From the text: Non-specific binding was estimated in the presence of […] Haloperidol. Receptor proteins were filtered and washed, the filters were then counted to determine [^3H]Spiperone specifically bound. […] Biochemical assay results are presented as the percent inhibition of specific binding in Table 9.

Assay [3] concerns the target T1, human recombinant serotonin (5-Hydroxytryptamine) 5-HT2A receptor (Homo sapiens, UniProt P28223).
T1 construct: expressed in transfected cells; host or cells: Chinese hamster ovary (CHO-K1) cells
Description: Serotonin 5-HT2A radioligand binding ([3H]Ketanserin). The settings on record: read-out: Inhibition of ligand binding, Serotonin 5-HT2A (percent inhibition of specific binding), compound at 0.1 μM. As to the method: Compounds of the invention were incubated with 0.5 nM [^3H]Ketanserin for 60 min. at 25° C. Non-specific binding was estimated in the presence of 1 μM Mianserin. Receptor proteins were filtered and washed, the filters were then counted to determine [^3H]Ketanserin specifically bound.

Assay [4] has as its target T2, human recombinant serotonin (5-Hydroxytryptamine) 5-HT2C receptor (Homo sapiens, UniProt P28335).
T2 construct: expressed in transfected cells; host or cells: Chinese hamster ovary (CHO-K1) cells
T2 sequence (P28335 33-458): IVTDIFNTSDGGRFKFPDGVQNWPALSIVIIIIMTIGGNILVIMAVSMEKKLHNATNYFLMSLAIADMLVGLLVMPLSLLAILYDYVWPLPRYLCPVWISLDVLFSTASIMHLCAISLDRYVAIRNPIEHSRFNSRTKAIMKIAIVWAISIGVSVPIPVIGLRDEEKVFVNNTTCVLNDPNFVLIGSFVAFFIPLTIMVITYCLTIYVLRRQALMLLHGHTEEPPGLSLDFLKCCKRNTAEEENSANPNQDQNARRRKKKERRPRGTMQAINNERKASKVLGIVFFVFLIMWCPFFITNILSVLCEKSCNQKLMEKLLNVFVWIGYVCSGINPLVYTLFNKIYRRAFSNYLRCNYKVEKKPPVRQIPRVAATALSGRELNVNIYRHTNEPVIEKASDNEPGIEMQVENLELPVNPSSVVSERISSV
Description: Serotonin 5-HT2C radioligand binding ([3H]Mesulergine). The settings on record: read-out: Inhibition of ligand binding, Serotonin 5-HT2C (percent inhibition of specific binding); for inhibition at 0.1 µM: compound at 0.1 μM. How it is done:
Compounds of the invention were incubated with 1 nM [^3H]Mesulergine for 60 min. at 25° C. Non-specific binding was estimated in the presence of 1 μM Mianserin. Receptor proteins were filtered and washed, the filters were then counted to determine [^3H]Mesulergine specifically bound. Compounds were screened at 1 μM or lower, using 1% DMSO as vehicle. Biochemical assay results are presented as the percent inhibition of specific binding in Table 10.

The target of assay [5] is T3, human recombinant serotonin (5-Hydroxytryptamine) 5-HT6 receptor (Homo sapiens, UniProt P50406).
T3 construct: expressed in transfected cells; host or cells: human HeLa cells
T3 sequence (P50406 whole entry): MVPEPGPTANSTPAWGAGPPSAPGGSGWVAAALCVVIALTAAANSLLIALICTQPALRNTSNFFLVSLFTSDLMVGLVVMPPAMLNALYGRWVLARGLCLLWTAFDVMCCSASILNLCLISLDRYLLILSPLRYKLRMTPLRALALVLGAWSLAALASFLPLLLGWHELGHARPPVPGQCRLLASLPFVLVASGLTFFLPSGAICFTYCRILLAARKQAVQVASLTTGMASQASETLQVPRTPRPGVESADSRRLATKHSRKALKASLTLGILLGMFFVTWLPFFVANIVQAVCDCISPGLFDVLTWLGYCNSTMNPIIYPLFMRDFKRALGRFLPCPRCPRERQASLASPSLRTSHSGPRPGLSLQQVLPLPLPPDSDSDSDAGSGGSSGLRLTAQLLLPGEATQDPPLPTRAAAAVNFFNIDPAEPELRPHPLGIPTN
Kind of assay: Serotonin 5-HT6 radioligand binding ([3H]LSD). The following applies: read-out: Inhibition of ligand binding, Serotonin 5-HT6 (percent inhibition of specific binding); for inhibition at 0.1 µM: compound at 0.1 μM. How it is done:
Compounds of the invention were incubated with 1.5 nM [3H]Lysergic acid diethylamide (LSD) for 120 min. at 37° C. […] Receptor proteins were filtered and washed, the filters were then counted to determine [3H]LSD specifically bound. Compounds were screened at 1 μM or lower, using 1% DMSO as vehicle. Biochemical assay results are presented as the percent inhibition of specific binding in Table 10.

Assay [6] has as its target human recombinant serotonin (5-Hydroxytryptamine) 5-HT7 receptor (Homo sapiens, UniProt P34969). Description: Serotonin 5-HT7 radioligand binding ([3H]LSD). The settings on record: compound at 0.1 μM; read-out: Inhibition of ligand binding, Serotonin 5-HT7 (percent inhibition of specific binding). From the text:
Receptor proteins were filtered and washed, the filters were then counted to determine [^3H]LSD specifically bound.

Where [7] appears, read: percent inhibition of specific binding, read-out: Inhibition of ligand binding, Dopamine D2L.

T1 sequence (P28223 whole entry): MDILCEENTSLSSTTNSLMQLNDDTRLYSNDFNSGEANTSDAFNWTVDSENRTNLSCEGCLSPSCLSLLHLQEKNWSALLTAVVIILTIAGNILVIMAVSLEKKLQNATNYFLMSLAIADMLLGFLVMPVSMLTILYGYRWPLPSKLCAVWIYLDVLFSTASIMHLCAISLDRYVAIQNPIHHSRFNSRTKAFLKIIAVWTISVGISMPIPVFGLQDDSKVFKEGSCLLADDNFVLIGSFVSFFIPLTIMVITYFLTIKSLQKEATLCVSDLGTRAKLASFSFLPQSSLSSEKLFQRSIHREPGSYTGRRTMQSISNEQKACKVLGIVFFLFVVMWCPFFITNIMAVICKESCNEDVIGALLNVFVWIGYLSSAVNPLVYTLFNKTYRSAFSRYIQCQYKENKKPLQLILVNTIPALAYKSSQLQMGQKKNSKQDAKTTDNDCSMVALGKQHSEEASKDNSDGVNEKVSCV
Sequence of human recombinant serotonin (5-Hydroxytryptamine) 5-HT7 receptor (P34969 whole entry): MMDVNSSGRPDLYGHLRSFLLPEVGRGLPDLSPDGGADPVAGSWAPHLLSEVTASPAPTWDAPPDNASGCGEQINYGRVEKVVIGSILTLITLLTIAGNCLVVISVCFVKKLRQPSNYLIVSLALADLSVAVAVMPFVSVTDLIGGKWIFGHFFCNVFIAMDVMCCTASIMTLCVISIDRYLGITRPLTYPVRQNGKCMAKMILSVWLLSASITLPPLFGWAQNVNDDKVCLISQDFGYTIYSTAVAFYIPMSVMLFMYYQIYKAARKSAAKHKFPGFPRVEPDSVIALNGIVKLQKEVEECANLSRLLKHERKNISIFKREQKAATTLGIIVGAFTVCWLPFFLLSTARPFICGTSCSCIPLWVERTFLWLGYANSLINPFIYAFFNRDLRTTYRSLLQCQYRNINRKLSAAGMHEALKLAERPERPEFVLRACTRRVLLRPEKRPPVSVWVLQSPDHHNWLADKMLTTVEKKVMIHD
Sequence of human dopamine D2L receptor (P14416 whole entry): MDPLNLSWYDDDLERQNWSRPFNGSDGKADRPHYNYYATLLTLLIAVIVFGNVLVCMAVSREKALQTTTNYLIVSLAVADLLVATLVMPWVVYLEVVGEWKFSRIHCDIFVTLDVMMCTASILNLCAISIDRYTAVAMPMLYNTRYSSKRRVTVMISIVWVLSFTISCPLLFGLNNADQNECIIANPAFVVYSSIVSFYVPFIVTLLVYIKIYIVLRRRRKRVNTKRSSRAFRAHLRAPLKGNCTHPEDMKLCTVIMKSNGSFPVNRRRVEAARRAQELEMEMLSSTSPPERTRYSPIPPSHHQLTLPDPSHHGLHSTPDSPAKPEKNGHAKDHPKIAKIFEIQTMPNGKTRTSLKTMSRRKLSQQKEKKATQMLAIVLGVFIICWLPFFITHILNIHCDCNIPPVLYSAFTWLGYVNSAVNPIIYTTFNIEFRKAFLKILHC

Regarding `C/C(=C\n1c2c(c3cc(OC(F)(F)F)ccc31)CN(C)CC2)c1ccncc1` [Compound 263, (E)-2-methyl-5-(2-(pyridin-4-yl)prop-1-enyl)-8-(trifluoromethoxy)-2,3,4,5-tetrahydro-1H-pyrido[4,3-b]indole], the inhibition at 1 µM in assay [1] was determined as 8%; in assay [2] (setting [7]), 89%. For the same compound, the inhibition at 0.1 µM in assay [3] came out at 64%; in assay [4] it was 18%; in assay [5] it was 99%; in assay [6], 15%.

As to `C/C(=C\n1c2c(c3cc(C(C)C)ccc31)CN(C)CC2)c1ccncc1` [Compound 267, (E)-8-isopropyl-2-methyl-5-(2-(pyridin-4-yl)prop-1-enyl)-2,3,4,5-tetrahydro-1H-pyrido[4,3-b]indole], the inhibition at 1 µM is 6% in assay [1] and 85% in assay [2] (setting [7]). In addition, the inhibition at 0.1 µM worked out at 66% in assay [3], 54% in assay [4], 87% in assay [5] and 85% in assay [6].

Regarding `C/C(=C\n1c2c(c3ccc(C(F)(F)F)cc31)CN(C)CC2)c1ccc(C)nc1` [Compound 250, (E)-2-methyl-5-(2-(6-methylpyridin-3-yl)prop-1-enyl)-7-(trifluoromethyl)-2,3,4,5-tetrahydro-1H-pyrido[4,3-b]indole], the inhibition at 1 µM in assay [1] stood at 12%; in assay [2] (setting [7]) it was 18%. In addition, the inhibition at 0.1 µM in assay [3] stood at 36%; in assay [4], 31%; in assay [5], 13%; in assay [6], 33%.

As for `C/C(=C\n1c2c(c3cc(F)ccc31)CN(C)CC2)c1ccc(C)nc1` [Compound 251, (E)-8-fluoro-2-methyl-5-(2-(6-methylpyridin-3-yl)prop-1-enyl)-2,3,4,5-tetrahydro-1H-pyrido[4,3-b]indole], the inhibition at 1 µM is 15% in assay [1] and 25% in assay [2] (setting [7]). The inhibition at 0.1 µM in assay [3] was determined as 85%; in assay [4], 77%; in assay [5] it was 8%; in assay [6], 74%.

In the case of `CN1CCc2c(c3cc(Cl)ccc3n2CC(C)(O)c2ccncn2)C1` (stereo not shown) [Compound 198, 1-(8-chloro-2-methyl-3,4-dihydro-1H-pyrido[4,3-b]indol-5(2H)-yl)-2-(pyrimidin-4-yl)propan-2-ol], the inhibition at 1 µM in assay [1] was determined as 64%; in assay [2] (setting [7]) it was 5%. Moreover, the inhibition at 0.1 µM in assay [3] was 23%; in assay [4], -1%; in assay [5], 11%; in assay [6], 4%.

As for `C/C(=C\n1c2c(c3cc(Cl)ccc31)CN(CCC(C)(C)O)CC2)c1ccncc1` [compound 404, (E)-4-(8-chloro-5-(2-(pyridin-4-yl)prop-1-enyl)-3,4-dihydro-1H-pyrido[4,3-b]indol-2(5H)-yl)-2-methylbutan-2-ol], the inhibition at 1 µM was found to be 37% in assay [1]; 92% in assay [2] ([…] [3H]Spiperone, read-out: Inhibition of ligand binding, Dopamine D2L (percent inhibition of specific binding)); 90% in assay [4] (compound at 1 μM); 95% in assay [5] (compound at 1 μM).

Consider `C/C(=C\n1c2c(c3cc(C)ccc31)CN(C)C(C)C2)c1ccncc1` (stereo not shown) [Compound 257, (E)-2,3,8-trimethyl-5-(2-(pyridin-4-yl)prop-1-enyl)-2,3,4,5-tetrahydro-1H-pyrido[4,3-b]indole], for which the values for the inhibition at 1 µM in assay [1] and in assay [2] (setting [7]) were 18% and 72%, respectively. In addition, the inhibition at 0.1 µM in assay [3] was 94%; in assay [4] it was 94%; in assay [5], 71%; in assay [6], 75%.

As to `C/C(=C\n1c2c(c3ccc(F)cc31)CN(C)CC2)c1ccc(C)nc1` [Compound 261, (E)-7-fluoro-2-methyl-5-(2-(6-methylpyridin-3-yl)prop-1-enyl)-2,3,4,5-tetrahydro-1H-pyrido[4,3-b]indole], the inhibition at 1 µM worked out at 11% in assay [1] and 28% in assay [2] (setting [7]). Besides, the inhibition at 0.1 µM in assay [3] is 74%; in assay [4], 31%; in assay [5], 4%; in assay [6], 47%.

On to `Cc1ccc2c(c1)c1c(n2CC(O)(c2ccncc2)C(C)C)CCN(C)C1` (stereo not shown) [Compound 194, 1-(2,8-dimethyl-3,4-dihydro-1H-pyrido[4,3-b]indol-5(2H)-yl)-3-methyl-2-(pyridin-4-yl)butan-2-ol], for which the inhibition at 1 µM worked out at 9% in assay [1] and 12% in assay [2] (setting [7]). Besides, the inhibition at 0.1 µM in assay [3] is 71%; in assay [4], 47%; in assay [5] it was 7%; in assay [6], 16%.

`C/C(=C\n1c2c(c3cccc(F)c31)CN(C)CC2)c1ccc(C)nc1` [Compound 260, (E)-6-fluoro-2-methyl-5-(2-(6-methylpyridin-3-yl)prop-1-enyl)-2,3,4,5-tetrahydro-1H-pyrido[4,3-b]indole]: the inhibition at 1 µM in assay [1] was -19%; in assay [2] (setting [7]) it was 9%. Moreover, the inhibition at 0.1 µM was 34% in assay [3], 29% in assay [4], -7% in assay [5] and 5% in assay [6].

Take `Cc1ccc2c(c1)c1c(n2/C=C(/c2ccncc2)C(C)(C)C)CCN(C)C1` [Compound 280, (E)-5-(3,3-dimethyl-2-(pyridin-4-yl)but-1-enyl)-2,8-dimethyl-2,3,4,5-tetrahydro-1H-pyrido[4,3-b]indole]: the inhibition at 1 µM in assay [1] amounted to 12%; in assay [2] (setting [7]), 52%. For the same compound, the inhibition at 0.1 µM in assay [3] was 83%; in assay [4] it was 86%; in assay [5], 56%; in assay [6], 20%.

With `COc1ccc([C@](C)(O)Cn2c3c(c4cc(C)ccc42)CN(C)CC3)cc1` [Compound 191, 1-(2,8-dimethyl-3,4-dihydro-1H-pyrido[4,3-b]indol-5(2H)-yl)-2-(4-methoxyphenyl)propan-2-ol], the inhibition at 1 µM in assay [1] turned out to be 23%; in assay [2] (setting [7]), 15%. The inhibition at 0.1 µM is 98% in assay [3], 94% in assay [4], 45% in assay [5] and 69% in assay [6].

For `CCc1ccc2c(c1)c1c(n2/C=C(\C)c2ccncc2)CCN(C)C1` [Compound 270, (E)-8-ethyl-2-methyl-5-(2-(pyridin-4-yl)prop-1-enyl)-2,3,4,5-tetrahydro-1H-pyrido[4,3-b]indole], the inhibition at 1 µM in assay [1] was found to be 19%; in assay [2] (setting [7]) it was 88%. Moreover, the inhibition at 0.1 µM stood at 92% in assay [3], 84% in assay [4], 97% in assay [5] and 79% in assay [6].

On to `C/C(=C\n1c2c(c3cc(C)ccc31)CN(C(C)C)CC2)c1ccncc1` [Compound 272, (E)-2-isopropyl-8-methyl-5-(2-(pyridin-4-yl)prop-1-enyl)-2,3,4,5-tetrahydro-1H-pyrido[4,3-b]indole], for which the inhibition at 1 µM was 48% in assay [1] and 85% in assay [2] (setting [7]). The inhibition at 0.1 µM was 62% in assay [3], 40% in assay [4], 98% in assay [5] and -1% in assay [6].

As a reminder, the inhibition is the drop in the measured response relative to a control, in per cent.
